One experiment addresses T1, human His-PIM1 [2-313] (Homo sapiens, UniProt P11309).
T1 construct: purified human His-PIM1 [2-313] enzyme; His (N); purchased University of Dundee, Scotland; host or cells: baculovirus system
Description: PIM1 in-vitro mobility shift assay (Caliper LC3000, FL-Ahx-Bad phosphorylation). The format is biochemical. To be noted: 1.5 h; percent inhibition at 0.3 uM compound; read-out: PIM1 % I at 0.3 uM. Summed up:
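Compound preincubated 20 min at 25 °C with 2.4 nM PIM1, 3.6 µM FL-Ahx-Bad peptide and 240 µM ATP (1.2× mix concentrations). Reaction started with 24 mM MgCl2 mix, run 90 min at 25 °C, EDTA-stopped. Phospho/unphospho peptide separated by microfluidic mobility shift; percent inhibition from ratiometric turnover.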

A further experiment deals with T2, human His-PIM2 [23-299] (Homo sapiens, UniProt Q9P1W9).
T2 construct: purified human His-PIM2 [23-299] enzyme; His (N); host or cells: E. coli
T2 sequence (Q9P1W9 23-299): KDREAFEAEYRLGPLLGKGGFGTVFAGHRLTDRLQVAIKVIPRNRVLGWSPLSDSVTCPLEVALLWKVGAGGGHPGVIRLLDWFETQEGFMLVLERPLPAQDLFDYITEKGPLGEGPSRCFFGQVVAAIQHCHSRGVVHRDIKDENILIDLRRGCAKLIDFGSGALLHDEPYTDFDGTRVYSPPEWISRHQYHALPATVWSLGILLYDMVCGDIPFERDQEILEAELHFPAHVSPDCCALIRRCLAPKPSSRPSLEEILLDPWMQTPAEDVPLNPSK
In words: PIM2 in-vitro mobility shift assay (Caliper LC3000, FL-Ahx-Bad phosphorylation). The format is biochemical. To be noted: 1.5 h; percent inhibition at 0.3 uM compound; read-out: PIM2 % I at 0.3 uM.

Counter-ions that a name gives are not always drawn.

T1 sequence (P11309 2-313): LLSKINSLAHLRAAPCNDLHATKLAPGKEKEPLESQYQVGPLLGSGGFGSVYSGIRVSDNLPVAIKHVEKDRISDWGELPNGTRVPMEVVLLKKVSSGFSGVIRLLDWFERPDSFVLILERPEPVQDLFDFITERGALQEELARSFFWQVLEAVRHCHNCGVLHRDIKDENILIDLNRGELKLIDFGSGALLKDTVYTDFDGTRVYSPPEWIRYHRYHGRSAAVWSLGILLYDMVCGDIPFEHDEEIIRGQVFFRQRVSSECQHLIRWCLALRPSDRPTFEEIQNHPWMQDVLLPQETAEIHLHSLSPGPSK

As to `COc1cc(/C=C2\SC(=O)NC2=O)c(-c2ccncc2)cc1OC` [Example 66, (Z)-5-(4,5-dimethoxy-2-(pyridin-4-yl)benzylidene)thiazolidine-2,4-dione], the inhibition at 0.3 µM came out at 50.3% at human His-PIM1 [2-313] and 20.9% at human His-PIM2 [23-299].

With `O=C1NC(=O)/C(=C/c2n[nH]c3ccccc23)S1` [Example 68, (Z)-5-((1H-indazol-3-yl)methylene)thiazolidine-2,4-dione], the results for the inhibition at 0.3 µM on human His-PIM1 [2-313] and at human His-PIM2 [23-299] were 41.9% and 9%, respectively.

In the case of `O=C1NC(=O)/C(=C/c2ccc[nH]c2=O)S1` [Example 70, (Z)-5-((2-oxo-1,2-dihydropyridin-3-yl)methylene)thiazolidine-2,4-dione], the inhibition at 0.3 µM at human His-PIM1 [2-313] and at human His-PIM2 [23-299] was < 5% throughout.

On to `O=C1NC(=O)/C(=C/c2cn[nH]c2)S1` [Example 71, (Z)-5-((1H-pyrazol-4-yl)methylene)thiazolidine-2,4-dione], for which the inhibition at 0.3 µM on human His-PIM1 [2-313] and on human His-PIM2 [23-299] was < 5% throughout.

With `O=C1NC(=O)/C(=C/c2ccncc2)S1` [Example 72, (Z)-5-(pyridin-4-ylmethylene)thiazolidine-2,4-dione], the inhibition at 0.3 µM at human His-PIM1 [2-313] and on human His-PIM2 [23-299] was < 5% throughout.

On to `Cn1nnc2cc(/C=C3\SC(=O)NC3=O)ccc21` [Example 73, (5Z)-5-[(1-methyl-1H-1,2,3-benzotriazol-5-yl)methylene]-1,3-thiazolidine-2,4-dione], for which the inhibition at 0.3 µM on human His-PIM1 [2-313] and at human His-PIM2 [23-299] was < 5% each time.

`Cn1ccc2ccc(/C=C3\SC(=O)NC3=O)cc21` [Example 75, (5Z)-5-[(1-methyl-1H-indol-6-yl)methylene]-1,3-thiazolidine-2,4-dione]: the inhibition at 0.3 µM on human His-PIM1 [2-313] is > 95%; on human His-PIM2 [23-299], 69.5%.

Regarding `Cn1ccc2cc(/C=C3\SC(=O)NC3=O)ccc21` [Example 76, (5Z)-5-[(1-methyl-1H-indol-5-yl)methylene]-1,3-thiazolidine-2,4-dione], the inhibition at 0.3 µM on human His-PIM1 [2-313] was determined as 59.6%; at human His-PIM2 [23-299] it was 27.6%.

Take `O=C1NC(=O)/C(=C/c2ccc3ncccc3c2)S1` [Example 77, (5Z)-5-(quinolin-6-ylmethylene)-1,3-thiazolidine-2,4-dione trifluoroacetate]: the inhibition at 0.3 µM at human His-PIM1 [2-313] was 51.2%; at human His-PIM2 [23-299] it was 22.7%.

Consider `O=C1NC(=O)/C(=C/c2ccc3[nH]ccc3c2)S1` [Example 78, (5Z)-5-(1H-indol-5-ylmethylene)-1,3-thiazolidine-2,4-dione], for which the results for the inhibition at 0.3 µM at human His-PIM1 [2-313] and on human His-PIM2 [23-299] were 71.4% and 30%, respectively.

As to `O=C1NC(=O)/C(=C/c2ccc3cc[nH]c3c2)S1` [Example 79, (5Z)-5-(1H-indol-6-ylmethylene)-1,3-thiazolidine-2,4-dione trifluoroacetate], the inhibition at 0.3 µM on human His-PIM1 [2-313] worked out at 90%; at human His-PIM2 [23-299], 60.7%.

`O=C1NC(=O)/C(=C/c2ccccc2N2CCOCC2)S1` [Example 82, (5Z)-5-(2-morpholin-4-ylbenzylidene)-1,3-thiazolidine-2,4-dione]: the values for the inhibition at 0.3 µM at human His-PIM1 [2-313] and at human His-PIM2 [23-299] were 87.4% and 58.2%, respectively.

As for `CN1CCN(c2ccccc2/C=C2\SC(=O)NC2=O)CC1` [Example 84A, (5Z)-5-[2-(4-methylpiperazin-1-yl)benzylidene]-1,3-thiazolidine-2,4-dione], the inhibition at 0.3 µM was found to be 92.9% at human His-PIM1 [2-313] and 54.3% at human His-PIM2 [23-299].

Take `NC(=O)COc1cccc(/C=C2\SC(=O)NC2=O)c1` [Example 84C, (Z)-2-(3-((2,4-dioxothiazolidin-5-ylidene)methyl)phenoxy)acetamide]: the inhibition at 0.3 µM on human His-PIM1 [2-313] was 47.8%; at human His-PIM2 [23-299], 29.6%.

For `O=C1NC(=O)/C(=C/c2cccc(OCCCN3CCCCC3)c2)S1` [Example 84D, (Z)-5-(3-(3-(piperidin-1-yl)propoxy)benzylidene)thiazolidine-2,4-dione], the figures for the inhibition at 0.3 µM at human His-PIM1 [2-313] and on human His-PIM2 [23-299] were 27.8% and < 5%, respectively.

On to `CN1CCN(Cc2cccc(/C=C3\SC(=O)NC3=O)c2)CC1` [Example 84E, (Z)-5-(3-((4-methylpiperazin-1-yl)methyl)benzylidene)thiazolidine-2,4-dione], for which the inhibition at 0.3 µM on human His-PIM1 [2-313] amounted to 11.7%; at human His-PIM2 [23-299] it was 6.1%.

With `CN(C)CCN(C)S(=O)(=O)c1ccc(-c2ccccc2/C=C2\SC(=O)NC2=O)cc1` [Example 84F, (Z)-N-(2-(dimethylamino)ethyl)-2′-((2,4-dioxothiazolidin-5-ylidene)methyl)-N-methylbiphenyl-4-sulfonamide], the inhibition at 0.3 µM amounted to 87.4% on human His-PIM1 [2-313] and 52.4% at human His-PIM2 [23-299].

As for `COc1ccc(N2CC[C@H](N(C)C)C2)c(C=C2SC(=O)NC2=O)c1` [Example 84G, (S)-5-(2-(3-(dimethylamino)pyrrolidin-1-yl)-5-methoxybenzylidene)thiazolidine-2,4-dione], the inhibition at 0.3 µM at human His-PIM1 [2-313] was found to be 92%; on human His-PIM2 [23-299], 63%.

As to `CN(C)[C@H]1CCN(c2ccc(C(F)(F)F)cc2C=C2SC(=O)NC2=O)C1` [Example 84H, (S)-5-(2-(3-(dimethylamino)pyrrolidin-1-yl)-5-(trifluoromethyl)benzylidene)thiazolidine-2,4-dione], the results for the inhibition at 0.3 µM at human His-PIM1 [2-313] and on human His-PIM2 [23-299] were > 95% and 67%, respectively.

On to `CN(C)[C@H]1CCN(c2ccc(Cl)cc2C=C2SC(=O)NC2=O)C1` [Example 84I, (S)-5-(5-chloro-2-(3-(dimethylamino)pyrrolidin-1-yl)benzylidene)thiazolidine-2,4-dione], for which the inhibition at 0.3 µM was > 95% at human His-PIM1 [2-313] and 82.7% on human His-PIM2 [23-299].

Turning to `Cc1ccc(C=C2SC(=O)NC2=O)c(N2CC[C@H](N(C)C)C2)c1` [Example 84J, (S)-5-(2-(3-(dimethylamino)pyrrolidin-1-yl)-4-methylbenzylidene)thiazolidine-2,4-dione], the values for the inhibition at 0.3 µM at human His-PIM1 [2-313] and on human His-PIM2 [23-299] were 93.3% and 40.4%, respectively.

Consider `CN(C)[C@H]1CCN(c2ccc(F)cc2C=C2SC(=O)NC2=O)C1` [Example 84K, (S)-5-(2-(3-(dimethylamino)pyrrolidin-1-yl)-5-fluorobenzylidene)thiazolidine-2,4-dione], for which the inhibition at 0.3 µM at human His-PIM1 [2-313] was > 95%; at human His-PIM2 [23-299], 90.8%.

As for `Cc1ccc(N2CC[C@H](N(C)C)C2)c(C=C2SC(=O)NC2=O)c1` [Example 84L, (S)-5-(2-(3-(dimethylamino)pyrrolidin-1-yl)-5-methylbenzylidene)thiazolidine-2,4-dione], the inhibition at 0.3 µM on human His-PIM1 [2-313] was > 95%; on human His-PIM2 [23-299], 55.2%.

For `CN(C)[C@H]1CCN(c2ccc(Br)cc2C=C2SC(=O)NC2=O)C1` [Example 84M, (S)-5-(5-bromo-2-(3-(dimethylamino)pyrrolidin-1-yl)benzylidene)thiazolidine-2,4-dione], the inhibition at 0.3 µM on human His-PIM1 [2-313] is > 95%; on human His-PIM2 [23-299], 80.9%.

Regarding `CN(C)[C@H]1CCN(c2c(F)cccc2C=C2SC(=O)NC2=O)C1` [Example 84N, (S)-5-(2-(3-(dimethylamino)pyrrolidin-1-yl)-3-fluorobenzylidene)thiazolidine-2,4-dione], the inhibition at 0.3 µM at human His-PIM1 [2-313] was 92.8%; at human His-PIM2 [23-299], 81.4%.

Regarding `CN(C)[C@H]1CCN(c2cccc(Cl)c2C=C2SC(=O)NC2=O)C1` [Example 84O, (S)-5-(2-chloro-6-(3-(dimethylamino)pyrrolidin-1-yl)benzylidene)thiazolidine-2,4-dione], the inhibition at 0.3 µM on human His-PIM1 [2-313] and at human His-PIM2 [23-299] was < 5% throughout.

The values above are taken from patent US8901307B2, “Chemical compounds 251” (AstraZeneca AB, priority 2008, dated 2014).
